Test results published in ChEMBL document CHEMBL5154661, “Novel 2-phenyl-3-(Pyridin-2-yl) thiazolidin-4-one derivatives as potent inhibitors for proliferation of osteosarcoma cells in vitro and in vivo” (Eur J Med Chem, 2022).
Calls of active or inactive are those of the source. The rule behind the calls is not given here.

What was measured:
143B = assay: Antiproliferative activity against human 143B cells assessed as cell growth inhibition measured after 72 hrs by CCK-8 assay; assay type: functional, cell-based
[1] = Toxicity in ICR mouse at 300 mg/kg, ip administered daily for a week; assay type: organism-based; conditions: in vivo
HOS-TE85 [2] = assay: Inhibition of cell migration in human MNNG/HOS cells at 20 nM measured after 24 hrs by wound healing assay relative to control; assay type: functional
[3] = Oral bioavailability in male ICR mouse at 25 mg/kg measured upto 24 hrs by LC-MS/MS analysis; assay type: ADME, organism-based; conditions: in vivo
K562 = assay: Antiproliferative activity against human K562 cells with low MYOF expression assessed as cell growth inhibition incubated for 72 hrs by CCK-8 assay; assay type: functional, cell-based; conditions: K562, 72 h
U2OS = assay: Antiproliferative activity against human U2OS cells assessed as cell growth inhibition measured after 72 hrs by CCK-8 assay; assay type: functional, cell-based
[4] = Half life in male ICR mouse at 12.5 mg/kg, iv measured upto 24 hrs by LC-MS/MS analysis; assay type: ADME, organism-based; conditions: in vivo
[5] = AUC(0 to infinity) in male ICR mouse at 62.5 mg/kg, ip measured upto 24 hrs by LC-MS/MS analysis; assay type: ADME, organism-based; parameters: dose 62.5 mg/kg, time < 24 hrs, route ip; conditions: in vivo
MG-63 [6] = assay: Antiproliferative activity against human MG-63 cells with increase MYOF expression assessed as cell growth inhibition incubated for 72 hrs by CCK-8 assay; assay type: functional, cell-based; conditions: MG-63, 72 h
[7] = Toxicity in BALB/c nude mouse xenografted with human MNNG/HOS cells assessed as effect on kidney morphology by H and E staining assay at 62.5 mg/kg, ip administered twice per day for 18 days; assay type: organism-based, HOS-TE85; conditions: in vivo, 432 h, time 18 day
HOS-TE85 [8] = assay: Cell cycle arrest at human MNNG/HOS cells assessed as accumulation at S phase at 5 uM measured after 24 hrs by propidium iodide staining based flow cytometry(Rvb=38.9%); assay type: functional
HOS-TE85 [9] = assay: Antiproliferative activity against human MNNG/HOS cells with low MYOF expression assessed as cell growth inhibition incubated for 72 hrs by CCK-8 assay; assay type: functional, cell-based; conditions: HOS-TE85, 72 h
HOS-TE85 [10] = assay: Antiproliferative activity against human MNNG/HOS cells assessed as cell growth inhibition measured after 72 hrs by CCK-8 assay; assay type: functional, cell-based; conditions: HOS-TE85, 72 h
[11] = Toxicity in ICR mouse at 800 mg/kg, ip; assay type: organism-based; conditions: in vivo
[12] = Plasma clearance in male ICR mouse at 12.5 mg/kg, iv measured upto 24 hrs by LC-MS/MS analysis; assay type: ADME, organism-based
[13] = Toxicity in BALB/c nude mouse xenografted with human MNNG/HOS cells assessed as effect on liver morphology by H and E staining assay at 62.5 mg/kg, ip administered twice per day for 18 days; assay type: organism-based, HOS-TE85; conditions: in vivo, 432 h, time 18 day
HOS-TE85 [14] = assay: Cell cycle arrest at human MNNG/HOS cells assessed as accumulation at G0/G1 phase at 5 uM measured after 24 hrs by propidium iodide staining based flow cytometry(Rvb=37.12%); assay type: functional
[15] = Toxicity in BALB/c nude mouse xenografted with human MNNG/HOS cells assessed as effect on ratio of liver weight to body weight at 62.5 mg/kg, ip administered twice per day for 18 days; assay type: organism-based, HOS-TE85; conditions: in vivo, 432 h, time 18 day
[16] = Toxicity in BALB/c nude mouse xenografted with human MNNG/HOS cells assessed as effect on spleen morphology by H and E staining assay at 62.5 mg/kg, ip administered twice per day for 18 days; assay type: organism-based, HOS-TE85; conditions: in vivo, 432 h, time 18 day
HOS-TE85 [17] = assay: Cell cycle arrest in human MNNG/HOS cells assessed as accumulation at G2/M phase at 5 uM measured after 24 hrs by propidium iodide staining based flow cytometry(Rvb=21.2%); assay type: functional
HOS-TE85 [18] = assay: Antitumor activity against human MNNG/HOS cells xenografted in BALB/c nude mouse assessed as reduction in tumor weight at 62.5 mg/kg, ip administered twice per day for 18 days; assay type: functional, organism-based; conditions: time 18.0 day
[19] = Cytotoxicity against human GES1 cells assessed as growth inhibition measured after 72 hrs by CCK-8 assay; assay type: toxicity, cell-based
HOS-TE85 [20] = assay: Antitumor activity against human MNNG/HOS cells xenografted in female BALB/c nude mouse assessed as tumor growth inhibition at 62.5 mg/kg, ip administered twice per day for 18 days relative to control; assay type: functional; conditions: HOS-TE85, 432 h, time 18 day, read-out: TGI
[21] = Toxicity in BALB/c nude mouse xenografted with human MNNG/HOS cells assessed as effect on ratio of spleen weight to body weight at 62.5 mg/kg, ip administered twice per day for 18 days; assay type: organism-based, HOS-TE85; conditions: in vivo, 432 h, time 18 day
[22] = Toxicity in BALB/c nude mouse xenografted with human MNNG/HOS cells assessed as body weight loss at 62.5 mg/kg, ip administered twice per day for 18 days; assay type: organism-based, HOS-TE85; conditions: in vivo, 432 h, time 18 day
[23] = Toxicity in BALB/c nude mouse xenografted with human MNNG/HOS cells assessed as effect on ratio of kidney weight to body weight at 62.5 mg/kg, ip administered twice per day for 18 days; assay type: organism-based, HOS-TE85; conditions: in vivo, 432 h, time 18 day
SW1353 = assay: Antiproliferative activity against human SW1353 cells assessed as cell growth inhibition measured after 72 hrs by CCK-8 assay; assay type: functional, cell-based; conditions: SW1353, 72 h
[24] = Cmax in male ICR mouse at 62.5 mg/kg, ip measured upto 24 hrs by LC-MS/MS analysis; assay type: ADME, organism-based; parameters: dose 62.5 mg/kg, time < 24 hrs, route ip; conditions: in vivo
MG-63 [25] = assay: Antiproliferative activity against human MG-63 cells assessed as cell growth inhibition measured after 72 hrs by CCK-8 assay; assay type: functional, cell-based; conditions: MG-63, 72 h
[26] = Half life in male ICR mouse at 62.5 mg/kg, ip measured upto 24 hrs by LC-MS/MS analysis; assay type: ADME, organism-based; conditions: in vivo
SJSA-1 [27] = assay: Antiproliferative activity against human SJSA-1 cells assessed as cell growth inhibition measured after 72 hrs by CCK-8 assay; assay type: functional, cell-based; conditions: SJSA-1, 72 h
[28] = Drug distribution in plasma of BALB/c nude mouse xenografted with human MNNG/HOS cells at 62.5 mg/kg,ip measured after 12 hrs; assay type: ADME, organism-based, HOS-TE85
[29] = Cytotoxicity against human BMSC cells assessed as growth inhibition measured after 72 hrs by CCK-8 assay; assay type: toxicity, cell-based, HBMSC
[30] = Toxicity in BALB/c nude mouse xenografted with human MNNG/HOS cells assessed as effect on heart morphology by H and E staining assay at 62.5 mg/kg, ip administered twice per day for 18 days; assay type: organism-based, HOS-TE85; conditions: in vivo, 432 h, time 18 day
HOS-TE85 [31] = assay: Inhibition of cell migration in human MNNG/HOS cells at 5 nM measured after 24 hrs by transwell assay; assay type: functional
[32] = Toxicity in BALB/c nude mouse xenografted with human MNNG/HOS cells assessed as effect on ratio of heart weight to body weight at 62.5 mg/kg, ip administered twice per day for 18 days; assay type: organism-based, HOS-TE85; conditions: in vivo, 432 h, time 18 day
[33] = AUC(0 to infinity) in male ICR mouse at 12.5 mg/kg, iv measured upto 24 hrs by LC-MS/MS analysis; assay type: ADME, organism-based; parameters: time < 24 hrs, dose 12.5 mg/kg, route iv; conditions: in vivo
HL-60 = assay: Antiproliferative activity against human HL-60 cells with low MYOF expression assessed as cell growth inhibition incubated for 72 hrs by CCK-8 assay; assay type: functional, cell-based; conditions: HL-60, 72 h
SAOS-2 = assay: Antiproliferative activity against human SAOS-2 cells assessed as growth inhibition measured after 72 hrs by CCK-8 assay; assay type: functional, cell-based; conditions: SAOS-2, 72 h
HOS-TE85 [34] = assay: Antiproliferative activity against human MNNG/HOS cells with increase MYOF expression assessed as cell growth inhibition incubated for 72 hrs by CCK-8 assay; assay type: functional, cell-based; conditions: HOS-TE85, 72 h
[35] = Bioavailability in male ICR mouse at 62.5 mg/kg, ip measured upto 24 hrs by LC-MS/MS analysis; assay type: ADME, organism-based; conditions: in vivo
[36] = Drug distribution in tumor of BALB/c nude mouse xenografted with human MNNG/HOS cells at 62.5 mg/kg,ip measured after 12 hrs; assay type: ADME, organism-based, Neoplasm, HOS-TE85; conditions: read-out: Ct
[37] = Half life in male ICR mouse at 5 mg/kg, iv measured upto 24 hrs by LC-MS/MS analysis; assay type: ADME, organism-based; conditions: in vivo
HOS = assay: Antiproliferative activity against human HOS cells assessed as cell growth inhibition measured after 72 hrs by CCK-8 assay; assay type: functional, cell-based
SJSA-1 [38] = assay: Antiproliferative activity against human SJSA-1 cells with increase MYOF expression assessed as cell growth inhibition incubated for 72 hrs by CCK-8 assay; assay type: functional, cell-based; conditions: SJSA-1, 72 h

bioavailability [3]: 0.36%
IC50 (K562): 28.1 nM
IC50 (U2OS): 26.5 nM
half-life [4]: 3.66 min
AUC(0-inf) [5]: 8410 ng·h/mL
clearance [12]: 66.9 mL/min/kg
IC50 (SW1353): 19.9 nM
Cmax [24]: 20500 ng/mL
half-life [26]: 38.5 min
IC50 (SJSA-1 [27]): 62.2 nM
concentration at 12 h [28]: 55.5 nM
AUC(0-inf) [33]: 3230 ng·h/mL
IC50 (HL-60): 19 nM
bioavailability [35]: 52.1%
concentration at 12 h [36]: 110 nM
half-life [37]: 23.4 min
IC50 (SJSA-1 [38]): 62.2 nM
Structure (SMILES): Cc1ccnc(N2C(=O)CS[C@@H]2c2cccc(C(=O)NCCCCn3cccn3)c2)c1
IC50 (143B): 29.5 nM
Activity [1]: Non-Toxic
inhibition at 0.02 µM (HOS-TE85 [2]): 50%
IC50 (MG-63 [6]): 14.9 nM
Activity [7]: Non-Toxic
Activity (HOS-TE85 [8]): 30.1%
IC50 (HOS-TE85 [9]): 35.2 nM
IC50 (HOS-TE85 [10]): 21.9 nM
Activity [11]: Non-Toxic
Activity [13]: Non-Toxic
Activity (HOS-TE85 [14]): 59.69%
Activity [15]: Non-Toxic
Activity [16]: Non-Toxic
Activity (HOS-TE85 [17]): 10.21%
Activity (HOS-TE85 [18]): Active
IC50 at 72 h [19]: > 20000 nM
inhibition in vivo at 62.5 mg/kg (HOS-TE85 [20]): 52.9%
Activity [21]: Non-Toxic
Activity [22]: Non-Toxic
Activity [23]: Non-Toxic
IC50 (MG-63 [25]): 14.9 nM
IC50 at 72 h [29]: > 10000 nM
Activity [30]: Non-Toxic
inhibition at 0.005 µM (HOS-TE85 [31]): 60%
Activity [32]: Non-Toxic
IC50 (SAOS-2): 26.8 nM
IC50 (HOS-TE85 [34]): 31.6 nM
IC50 (HOS): 50.9 nM
